Source: ChEMBL document CHEMBL1134092, “alpha-Keto heterocycle inhibitors of fatty acid amide hydrolase: carbonyl group modification and alpha-substitution” (Bioorg Med Chem Lett, 2001)

Target: T1, Fatty-acid amide hydrolase 1 (Rattus norvegicus, UniProt P97612)
T1 sequence (P97612 whole entry): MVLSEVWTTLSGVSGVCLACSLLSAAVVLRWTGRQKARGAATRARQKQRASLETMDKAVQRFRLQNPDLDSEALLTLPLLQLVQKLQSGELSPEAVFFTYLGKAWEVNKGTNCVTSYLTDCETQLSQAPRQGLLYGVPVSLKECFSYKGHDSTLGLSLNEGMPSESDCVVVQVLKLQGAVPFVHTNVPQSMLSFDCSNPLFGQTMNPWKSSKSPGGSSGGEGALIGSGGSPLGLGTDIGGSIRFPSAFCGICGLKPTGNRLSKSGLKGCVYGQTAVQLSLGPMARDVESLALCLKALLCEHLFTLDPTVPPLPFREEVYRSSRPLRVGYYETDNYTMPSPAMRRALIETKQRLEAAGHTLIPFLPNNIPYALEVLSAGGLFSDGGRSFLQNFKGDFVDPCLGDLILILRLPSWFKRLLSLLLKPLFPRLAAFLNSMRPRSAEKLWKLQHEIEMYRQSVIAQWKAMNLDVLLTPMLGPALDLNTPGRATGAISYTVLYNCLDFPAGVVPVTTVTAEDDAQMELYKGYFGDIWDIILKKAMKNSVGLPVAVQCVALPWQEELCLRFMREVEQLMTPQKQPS
Assay: Inhibitory activity against fatty acid amide hydrolase (FAAH)

SMILES	Ki
CCCCCCCC/C=C\CCCCCCCC(=O)c1nc2ncccc2o1	2.3 nM
CCCCCCCC/C=C\CCCCCCCC(=O)c1nc2ccccc2o1	150 nM
CCCCCCCC/C=C\CCCCCCCC(=O)c1ncco1	100 nM
